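Interpolation was linear, between the two tested concentrations surrounding the appropriate level; five concentrations were tested over 48 hours in 96-well plates. Here, GI50 denotes the concentration required for 50% inhibition of growth. TGI denotes the concentration required for complete inhibition of growth.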
Columns and labels:
Test in all cases: NCI-60 cell line screen, 48 h
[1] = test system: TK-10 renal
[2] = test system: MCF7 breast
[3] = test system: SN12C renal
[4] = test system: OVCAR-4 ovarian
[5] = test system: EKVX NSCLC
[6] = test system: KM12 colon
[7] = test system: M14 melanoma
[8] = test system: MDA-MB-231 breast
[9] = test system: SF-268 CNS
[10] = test system: U251 CNS

SMILES | GI50 [1] [µM] | TGI [1] [µM] | GI50 [2] [µM] | TGI [2] [µM] | GI50 [3] [µM] | TGI [3] [µM] | GI50 [4] [µM] | TGI [4] [µM] | GI50 [5] [µM] | TGI [5] [µM] | GI50 [6] [µM] | TGI [6] [µM] | GI50 [7] [µM] | TGI [7] [µM] | GI50 [8] [µM] | TGI [8] [µM] | GI50 [9] [µM] | TGI [9] [µM] | TGI [10] [µM]
O=C(/C=C/c1ccco1)c1ccc(Nc2ccnc3cc(Cl)ccc23)cc1 | > 100 | > 100 | 1.46 | 4.55 | > 100 | > 100 | 39.9 | > 100 | > 100 | > 100 | 3.17 | > 100 | 70.7 | > 100 | 12.8 | 34.7 | > 100 | > 100 | 
COc1ccc(/C=C/C=C2C(=O)NC(=S)NC2=O)cc1 |  | 7.33 |  | 22 |  | 19.5 |  | > 60.7 |  | 25.7 |  | 34.6 |  | 21.7 |  | 4.57 |  | 26.8 | 5.1
COc1c2c(cc3oc(=O)ccc13)OC(C)(C)C=C2 |  | > 125 |  | 57.8 |  | 100 |  |  |  | > 125 |  | 48.5 |  | 48.4 |  | 76.2 |  | > 125 | 78.5
Nc1c(Cl)ncnc1NCC1(CO)CCC1 |  | > 100 |  | > 100 |  | > 100 |  | > 100 |  | > 100 |  | > 100 |  |  |  | > 100 |  | > 100 | > 100
COc1ccc(/C=N/N=C(N)N)c(C(=O)O)c1OC |  | > 100 |  |  |  | > 100 |  | > 100 |  | > 100 |  | > 100 |  | > 100 |  |  |  | > 100 | > 100
NC(=O)c1ccc(N)nc1 |  | > 400 |  | > 400 |  | > 400 |  | > 400 |  | > 400 |  | > 400 |  | > 400 |  | > 400 |  | > 400 | > 400
C=CCCCN1C(=O)C2C3c4ccccc4C(C=O)(c4ccccc43)C2C1=O (stereo unspecified) |  | 30.2 |  | 28.5 |  | 22.2 |  | 29.1 |  | 20.7 |  | 21.6 |  |  |  | 23.5 |  | 59 | 24.9
COc1cc(C(C)(C)C)c(OC(=O)/C=C/C(=O)O/C=C/[N+](=O)[O-])c(C(C)(C)C)c1 |  | > 100 |  | 40.4 |  | > 100 |  |  |  | > 100 |  | 38.5 |  | 65.6 |  | 82.1 |  | 75.7 | > 100
COC12OC3(C4OC41)C(C(=O)O[C@H]3CO[Si](C)(C)C(C)(C)C)C2S(=O)(=O)c1ccccc1 (stereo partly specified) |  | > 100 |  | > 100 |  | > 9.26 |  |  |  | > 5.18 |  |  |  |  |  | > 7.32 |  |  | > 7.83
CN(C)CCNc1ccccn1 |  | > 100 |  |  |  | > 100 |  | > 100 |  | > 100 |  | > 100 |  | > 100 |  | > 100 |  | > 100 | > 100
N.N.NCCCCN.O=C([O-])CCl.O=C([O-])CCl.O=C([O-])CCl.O=C([O-])CCl.[Pt+4].[Pt+4] |  | > 50 |  |  | 9.99 | 49.8 |  | > 50 |  | > 50 |  | > 50 |  | > 50 |  |  |  | > 50 | > 50

Source: PubChem BioAssay (NCI)
